Patent US20240287074A1, “SALTS AND CRYSTALS” (Kinoxis Therapeutics Pty Ltd, priority 2020, published 2024)
Where a name gives a salt, the structure may show the parent alone. Read-outs that look alike come from different tables or passages of the source. Marks after values point to notes of the source that are not given here.

What was measured:
[1] = Oral pharmacokinetics in rats; format: in vivo; conditions: for Plasma AUC0-inf/Dose / Plasma Cmax/Dose: dose-normalised; for Plasma AUC0-inf/Dose / Plasma Cmax/Dose / BA % / % Dose in urine: male Sprague Dawley rats; for Plasma AUC0-inf/Dose / Plasma Cmax/Dose / % Dose in urine: dihydrochloride; for BA % / % Dose in urine / Cmax / half-life / AUC(0-inf) / Tmax: 5 mg/kg target dose (freebase equivalent), 5 mg/kg; for BA % / Cmax / half-life / AUC(0-inf) / Tmax: mean ± SD; for BA %: n = 3, dihydrochloride; for % Dose in urine: urine up to 24 h; for Cmax / half-life / AUC(0-inf) / Tmax: male, Sprague Dawley, rat, plasma, po; for Cmax: n = 3; for half-life: n = 3, read-out: Apparent t1/2 (converted); for AUC(0-inf): n = 3, read-out: Plasma AUC0-inf; for Tmax: n = 3, read-out: Tmax
Protocol: N=3 rats were run in each of the four conditions: • (1) Di-HCL salt in saline • (2) Di-HCL salt in methocel • (3) Phosphate form 1 in saline • (4) Phosphate form 1 in methocel
On the day of dosing the solid compounds were dissolved in either Saline (0.9%) or 0.5% hydroxypropyl methylcellulose (Methocel E3 Premium LV) in Milli-Q water. The formulations were then thoroughly vortexed to produce colourless solutions.
Overnight-fasted rats with adlibitum access to water were administered their dose of the various forms of the compound of the invention via oral gavage (PO) at a dose volume of 3 ml/kg and a dose of 5 mg/kg freebase equivalent. Food access was re-instated 4 hours (h) post-dose. Samples of arterial blood were collected up to 24 h post-dose. After collection, samples were centrifuged, plasma was removed and stored frozen at −80° C. before being analysed by LC-MS. Urine samples were collected at pre, 0-4 h, 4-7 h and 7-24 h post-dose and were analysed by LC-MS following extraction.

[2] = Dynamic / gravimetric vapour sorption (DVS/GVS) hygroscopicity; format: physicochemical
Protocol: Approximately, 10-20 mg of sample was placed into a mesh vapour sorption balance pan and loaded into a DVS Intrinsic dynamic vapour sorption balance by Surface Measurement Systems. The sample was subjected to a ramping profile from 40-90% relative humidity (RH) at 10% increments, maintaining the sample at each step until a stable weight had been achieved (dm/dt 0.004%, minimum step length 30 minutes, maximum step length 500 minutes) at 25° C. After completion of the sorption cycle, the sample was dried using the same procedure to 0% RH and then a second sorption cycle back to 40% RH. Two cycles were performed. The weight change during the sorption/desorption cycles were plotted, allowing for the hygroscopic nature of the sample to be determined. XRPD analysis was then carried out on any solid retained.
Approximately 10-20 mg of sample was placed into a mesh vapour sorption balance pan and loaded into an IGASorp Moisture Sorption Analyser balance by Hiden Analytical. The sample was subjected to a ramping profile from 40-90% relative humidity (RH) at 10% increments, maintaining the sample at each step until a stable weight had been achieved (98% step completion, minimum step length 30 minutes, maximum step length 60 minutes) at 25° C. After completion of the sorption cycle, the sample was dried using the same procedure to 0% RH, and finally taken back to the starting point of 40% RH. Two cycles were performed. The weight change during the sorption/desorption cycles were plotted, allowing for the hygroscopic nature of the sample to be determined.

[3] = test system: orthosteric vasopressin receptor binding sites; conditions: cited from earlier work
[4] = test system: C57BL/6 mouse model of opioid withdrawal; test: Naloxone precipitated oxycodone withdrawal-induced jumping; format: in vivo; conditions: 7.3 mg/kg FBE i.p., C57BL/6 mice, 30 min session, vs OXY_VEH
Protocol: Two cohorts of adult male C57BL/6 mice were run assessing the effects of 7.3 mg/kg freebase equivalent (FBE) IP of the compound of the invention in the dihydrochloride salt form (CMPD1-2HCL) and the phosphate form 1 (CMPD1-PO4) on naloxone precipitated withdrawal-induced jumping.
The first cohort of mice (N=30) were split into the following conditions: • (1) Vehicle, 0 mg/kg (n=10); • (2) oxycodone, 0 mg/kg compound of the invention FBE in 2HCL salt form (n=10); • (3) oxycodone, 7.3 mg/kg compound of the invention FBE in 2HCL salt form (n=10).
The second cohort of mice (N=24) were split into the following conditions: • (1) Vehicle, 0 mg/kg (n=8); • (2) oxycodone, 0 mg/kg compound of the invention FBE in PO4 salt form (n=8); • (3) oxycodone, 7.3 mg/kg compound of the invention FBE in PO4 salt form (n=8).
Mice in the oxycodone conditions received i.p. injections of oxycodone for 5 days according to the schedule and doses set out in Table 8. The morning and afternoon doses were separated by 7 h. Mice in the vehicle condition received injections of vehicle saline instead of oxycodone. […]
Testing involved placing mice individually into a 20 (I)×20 (w)×30 (h) cm arena for 30 min. […] Number of jumps were scored from the videos by an experienced experimenter blind to conditions.
Data were analysed by SPSS using oneway ANOVA and planned contrasts.

[5] = target: T1, orthosteric oxytocin receptor binding sites (Homo sapiens, UniProt P30559); conditions: cited from earlier work
T1 sequence (P30559 1-389): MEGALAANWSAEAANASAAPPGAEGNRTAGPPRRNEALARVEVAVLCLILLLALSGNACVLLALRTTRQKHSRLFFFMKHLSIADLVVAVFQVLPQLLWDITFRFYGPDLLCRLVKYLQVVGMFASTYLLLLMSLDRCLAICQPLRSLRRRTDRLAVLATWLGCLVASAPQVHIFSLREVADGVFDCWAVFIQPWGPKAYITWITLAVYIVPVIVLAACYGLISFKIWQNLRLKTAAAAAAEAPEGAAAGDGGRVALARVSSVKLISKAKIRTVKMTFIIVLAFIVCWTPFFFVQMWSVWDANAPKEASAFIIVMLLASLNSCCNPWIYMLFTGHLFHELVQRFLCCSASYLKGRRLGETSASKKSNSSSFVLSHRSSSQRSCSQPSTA

Plasma AUC0-inf/Dose ([1]; Methocel): 0.91 ± 0.12 (μg*h/mL)/(mg/kg)
Plasma Cmax/Dose ([1]; Methocel): 0.40 ± 0.02 (μg/mL)/(mg/kg)
Plasma AUC0-inf/Dose ([1]; Saline): 1.14 ± 0.12 (μg*h/mL)/(mg/kg)
Plasma Cmax/Dose ([1]; Saline): 0.61 ± 0.29 (μg/mL)/(mg/kg)
BA % ([1]; Methocel): 98.9 ± 13^b %
% Dose in urine ([1]; Methocel): 0.224 ± 0.14%
BA % ([1]; Saline): 124 ± 13%
% Dose in urine ([1]; Saline): 0.184 ± 0.059%
Cmax ([1]; Methocel): 1800 ± 110 ng/mL
half-life ([1]; Methocel): 40.8 ± 12 min
AUC(0-inf) ([1]; Methocel): 4100 ± 520 ng·h/mL
Tmax ([1]; Methocel): 19.8 ± 6 min
Cmax ([1]; Saline): 2930 ± 1360 ng/mL
half-life ([1]; Saline): 41.4 ± 6 min
AUC(0-inf) ([1]; Saline): 5460 ± 540 ng·h/mL
Tmax ([1]; Saline): 45 ± 24 min
relative humidity above which form change is indicated by DVS [2]: above 60 % RH
relative humidity below which the weight change is reversible (DVS) [2]: below 30 % RH
hygroscopicity ([2]; DVS, 25° C., dihydrochloride): high hygroscopicity
SMILES: Cn1ncc2c1Nc1ccccc1NC2 [Di-hydrochloride salt, 1-Methyl-1,4,5,10-tetrahydropyrazolo[3,4-b][1,5]benzodiazepine dihydrochloride]
binding affinity for the orthosteric vasopressin receptor binding sites [3]: without demonstrating significant binding affinity
oxycodone withdrawal-induced jumping [4]: significantly inhibited
binding affinity for the orthosteric oxytocin receptor binding sites [5]: without demonstrating significant binding affinity
